Our source for the Kd values is paper PMC9441601, “Aspergillus oryzae accelerates the conversion of ergosterol to ergosterol peroxide by efficiently utilizing cholesterol” (Frontiers in Genetics, 2022).

As usually defined, the Kd is the concentration at which binding is half-saturated.

Read-outs that look alike come from different tables or passages of the source.

The test addresses T1, Osh3 (Aspergillus oryzae, UniProt Q2U562).
T1 construct: gene AO090020000057
The test is described as follows: microscale thermophoresis (MST), purified fluorescently labelled Osh3. It counts as binding. (In general: MST reads how a fluorescent partner responds to local heating, with and without ligand.)

T1 sequence (Q2U562 entry or part of it): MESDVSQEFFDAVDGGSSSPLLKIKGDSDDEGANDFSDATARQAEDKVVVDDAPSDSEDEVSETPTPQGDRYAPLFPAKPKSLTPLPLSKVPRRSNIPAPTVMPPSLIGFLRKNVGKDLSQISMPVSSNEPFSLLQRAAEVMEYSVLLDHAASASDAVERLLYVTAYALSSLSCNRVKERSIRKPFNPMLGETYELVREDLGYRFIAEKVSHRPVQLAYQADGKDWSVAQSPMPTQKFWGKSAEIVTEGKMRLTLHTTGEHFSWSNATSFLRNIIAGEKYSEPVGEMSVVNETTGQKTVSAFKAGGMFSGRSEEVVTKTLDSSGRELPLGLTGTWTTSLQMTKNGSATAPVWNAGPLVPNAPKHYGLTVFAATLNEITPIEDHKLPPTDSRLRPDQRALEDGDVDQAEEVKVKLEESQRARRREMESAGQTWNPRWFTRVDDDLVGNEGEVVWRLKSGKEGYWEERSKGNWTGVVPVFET

On to `CC(C)CCC[C@@H](C)[C@H]1CC[C@H]2[C@@H]3C(=O)C=C4C[C@@H](O)CC[C@]4(C)[C@H]3CC[C@]12C` [7-ketocholesterol], for which, where the note is “read-out: Kd”, the dissociation constant (Kd) is 1.46 µM.
The same measure, in the same setting: in the case of `C[C@H](CCCC(C)(C)O)[C@H]1CC[C@H]2[C@@H]3CC=C4C[C@@H](O)CC[C@]4(C)[C@H]3CC[C@]12C` [25-hydroxycholesterol] it was 0.0091 ± 0.002 µM.
In the case of `CC(C)[C@H](C)CC[C@@H](C)[C@H]1CC[C@H]2[C@@H]3CC=C4C[C@@H](O)CC[C@]4(C)[C@H]3CC[C@]12C` [campesterol], the Kd amounted to 0.339 ± 0.0781 µM.
Regarding `CC(C)[C@@H](C)/C=C/[C@@H](C)[C@H]1CC[C@H]2C3=C[C@@H](O)[C@@]4(O)C[C@@H](O)CC[C@]4(C)[C@H]3CC[C@]12C` [cerevisterol], the Kd (read-out: Kd) amounted to 0.0034 ± 0.0013 µM.
Regarding `CC(C)CCC[C@@H](C)[C@H]1CC[C@H]2[C@@H]3CC=C4C[C@@H](O)CC[C@]4(C)[C@H]3CC[C@]12C` [cholesterol], the Kd (read-out: Kd) amounted to 0.333 ± 0.0453 µM.
On the same count and under the same terms, for `CC(C)[C@@H](C)/C=C/[C@@H](C)[C@H]1CC[C@@H]2[C@]1(C)CC[C@H]1[C@]23C=C[C@]2(C[C@@H](O)CC[C@]12C)OO3` [ergosterol peroxide] the value was 0.0081 ± 0.0021 µM.
Same read-out and setting: for `CC(C)[C@@H](C)/C=C/[C@@H](C)[C@H]1CC[C@H]2C3=CC=C4C[C@@H](O)CC[C@]4(C)[C@H]3CC[C@]12C` [ergosterol] the value was 0.122 ± 0.0243 µM.
`CC[C@H](/C=C/[C@@H](C)[C@H]1CC[C@H]2[C@@H]3CC=C4C[C@@H](O)CC[C@]4(C)[C@H]3CC[C@]12C)C(C)C` [stigmasterol] returned a Kd of 0.001 ± 0.0008 µM.
Regarding `CC[C@H](CC[C@@H](C)[C@H]1CC[C@H]2[C@@H]3CC=C4C[C@@H](O)CC[C@]4(C)[C@H]3CC[C@]12C)C(C)C` [β-sitosterol], the Kd was determined as 0.0658 ± 0.0246 µM.
